Data as given in US9895334B2, “Treatment of virally induced lesions” (LEO Laboratories Limited, priority 2007, dated 2018).

Tested on: Cottontail Rabbit Papilloma Virus (CRPV) cutaneous warts
Experiment: Cottontail Rabbit Papilloma Virus (CRPV) model of cutaneous warts: wart surface area after topical gel
Type: in vivo, Hra(NZW)SPF New Zealand White Rabbits
Text: Efficacy of Ingenol-3-angelate (PEP005) Topical Gel in a Cottontail Rabbit Papilloma Virus (CRPV) model of cutaneous warts in Hra(NZW)SPF New Zealand White Rabbits.
Ch 25. In: Zak O, Sande M A, editors. Handbook of animal models of infection. New York: Academic Press; 1999. p. 1039-47). Concentrations of the inoculant were selected empirically based on published information for the CRPV model in which cutaneous papillomas (warts) were induced in rabbits (Christensen N D. Cottontail rabbit papillomavirus (CRPV) model system to test antiviral and immunotherapeutic strategies. Antiviral chemistry & chemotherapy 2005; 16(6):355-62). The percutaneous route was selected because this route has been successfully used to establish cutaneous papilloma (wart) formation in rabbits following inoculation with CRPV DNA.
Ten female Hra:(NZW)SPF New Zealand White (NZW) female rabbits were randomly assigned to four dose groups, three rabbits per dose group in Groups 1 through 3 and one rabbit in Group 4.
Four days before inoculation (DS-4), the backs of the rabbits were shaved over an area encompassing all eight exposure sites using an electric clipper with an appropriate blade. Following clipping, the skin was chemically depilated with Veet® (distributed by Reckitt Benckiser Inc., Parsippany, N.J., USA). The clipped area (approximately 10 cm×20 cm) extended from the shoulders to the hip joints of each rabbit and was approximately 10 cm wide (extending ventrolaterally from the dorsal midline approximately 5 cm on each side). Any re-growth of hair was carefully clipped, as needed throughout the study.
Three days before inoculation, rabbits were anesthetized with isoflourane/oxygen and the exposure sites on each rabbit were tattooed (Aims Black Pigment #242, AIMS Inc, Piscataway, N.J., USA, lot number F0707A, expiration date 30 Jun. 2008) on either side of each inoculation site. Each exposure site was carefully scarified using a scalpel blade (#60) to create a brush burn-like lesion in order to promote wart growth following inoculation. Rabbits were monitored constantly for signs of regular breathing and comfort while anesthetized and until full recovery from anesthesia. […]
Daily observations for development of the warts began during week 4 and continued until the first day of test article or placebo administration. The length and width of each cutaneous wart was recorded from the day of first observation to the completion of the study.
Dose administration of PEP005 Topical Gel or placebo began on DS 50. […] The treatment area of each dosing site was determined from the most recent length and width measurements of each wart (mm^2). […]

C/C=C(/C)C(=O)O[C@H]1C(C)=C[C@]23C(=O)[C@@H](C=C(CO)[C@@H](O)[C@]12O)[C@H]1[C@@H](C[C@H]3C)C1(C)C [PEP005, ingenol-3-angelate]
Average percentage change in wart area relative to Day 50 (0.1% PEP005, 3 day treatment, Days 51-57): 2.1% | Average percentage change in wart area relative to Day 50 (0.1% PEP005, 3 day treatment, Days 56-64): −4.7% | Average percentage change in wart area relative to Day 50 (0.1% PEP005, 5 day treatment, Days 51-57): 17.5% | Average percentage change in wart area relative to Day 50 (0.1% PEP005, 5 day treatment, Days 56-64): 3.9%
